Measurements as given in patent US8183206B2, “Drugs comprising combination of antithrombotic agent with pyrazolone derivative” (Mitsubishi Tanabe Pharma Corporation, priority 2001, dated 2012).

Columns and labels:
[1] = system: patients diagnosed as cerebral infarction; test: Function prognosis by modified ranking scale in cerebral infarction patients (Example 2); assay type: in vivo, human; settings: on leaving hospital within 1 month after start of administration
Description: Administration amount and method are shown below.
Sodium ozagrel: 80 mg of sodium ozagrel was dissolved in an adequate amount of an electrolyte solution or carbohydrate solution and the resulting solution was intravenously administered constantly for 2 weeks, twice daily, that is, in the morning and evening, each over 2 hours.
(§1) Argatroban: For the first two days, 60 mg/120 ml of argatroban was diluted with an adequate amount of a transfusion fluid and the resulting solution was intravenously infused constantly over 24 hours. For the following 5 days, 10 mg/20 ml of argatroban was diluted with an adequate amount of a transfusion fluid and the resulting solution was intravenously infused twice daily, that is, in the morning and evening, each over 3 hours.
Sodium ozagrel+edaravone: 80 mg of sodium ozagrel was dissolved in an adequate amount of an electrolyte solution or carbohydrate solution and the resulting solution was intravenously administered constantly for 2 weeks, twice daily, that is, in the morning and evening, each over 2 hours. At the same time, 30 mg/20 ml of edaravone was diluted with an adequate amount of physiological saline and the resulting solution was intravenously infused for 2 weeks, twice daily, that is, in the morning and evening, each over 20 minutes.
as §1, with “Argatroban+edaravone: For” for “Argatroban: For”, “3 hours; and at the same time, 30 mg/20 ml of edaravone was diluted with an adequate amount of physiological saline and the resulting solution was intravenously infused for 2 weeks twice daily, that is, in the morning and evening, each over 30 minutes.” for “3 hours.”
In the above-described table, what the meaning of grade will be explained briefly. Grade 0: no symptoms, Grade 1: some symptoms but non-significant disability (able to carry out all daily activities and affairs), Grade 2: slight disability (unable to carry out all previous activities but able to look after own affairs without assistance), Grade 3: moderate disability (requiring some help, but able to walk without assistance), Grade 4: relatively severe disability (requiring assistance for walk or daily activities), Grade 5: very severe disability (bedridden, incontinence and requiring constant nursing care and attention), Grade 6: death.

[2] = system: patients in the acute stage of cerebral infarction; test: Comparative Example: edaravone alone, modified ranking scale, patients in the acute stage of cerebral infarction; assay type: in vivo, human; settings: edaravone used alone, within three months, from cited data
Description: Evaluation results of edaravone, when administered alone, in accordance with the modified ranking scale are included in Therapeutic Research, Vol. 19(4), 1333-1345, 1998.
Evaluation method and results: Edaravone (30 mg/20 ml) diluted with 100 ml of physiological saline was intravenously infused to 8 patients in the acute stage of cerebral infarction constantly for 14 days twice daily (morning and evening), each over 30 minutes. During the administration term of this medicament, administration of another medicament which might have an influence on the drug efficacy evaluation was avoided. Evaluation was made in accordance with the modified ranking scale three months after the initiation of the administration or upon discharge of the patient from the hospital within three months after the initiation of administration.

Wistar rat = test: Influence of t-PA on the bleeding time (tail transection, anesthetized rats); assay type: in vivo; settings: for Bleeding time: urethane anesthesia, t-PA 1 mg/kg constant i.v. infusion, edaravone 3 mg/kg i.v. 5 min before tail transection, average ± S.E., measured up to 30 min
Description: Via a cannula inserted into the femoral vein of each Wistar rat anesthetized with urethane (1.2 g/kg, i.p.), 1 mg/kg (1 mg=580000 IU; 4 mL/kg, 1 mL/hr) of physiological saline or t-PA was constantly infused. Fifty five minutes after the constant fusion was started, 3 mg of edaravone (3-methyl-1-phenyl-2-pyrazolin-5-one) or physiological saline was administered intravenously. Five minutes after that, the tail was transected at 2 mm from its tip immediately by using a razor. Every 15 seconds, the blood from the tail was blotted with a filter paper and the time until bleeding ceased was measured for up to 30 minutes.

[3] = system: patients in the acute stage of cerebral infarction; settings: edaravone 30 mg i.v. twice daily for 14 days; evaluated three months after initiation or upon discharge within three months; cited from earlier work

Molecule	Number of patients in Grade 0 (no symptoms), modified ranking scale [1]	Number of patients in Grade 1 (some symptoms but non-significant disability), modified ranking scale [1]	Number of patients in Grade 2 (slight disability), modified ranking scale [1]	Number of patients in Grade 3 (moderate disability), modified ranking scale [1]	Number of patients in Grade 4 (relatively severe disability), modified ranking scale [1]	Number of patients in Grade 5 (very severe disability), modified ranking scale [1]	Number of patients in Grade 6 (death), modified ranking scale [1]	Ratio of Grade 0 [2] [%]	Bleeding time (Wistar rat) [min]	Number of patients in Grade 0, modified ranking scale [3]	Number of patients in Grade 1 (some symptoms but non-significant disability), modified ranking scale [3]	Number of patients in Grade 2 (slight disability), modified ranking scale [3]	Number of patients in Grade 3, modified ranking scale [3]	Number of patients in Grade 4 (relatively severe disability), modified ranking scale [3]	Number of patients in Grade 5, modified ranking scale [3]	Number of patients in Grade 6, modified ranking scale [3]	Influence on bleeding time compared with the control group (physiological saline) (Wistar rat; t-PA 1 mg/kg, result in words)
CC1CNc2c(cccc2S(=O)(=O)N[C@@H](CCCNC(=N)N)C(=O)N2CC[C@@H](C)C[C@@H]2C(=O)O)C1 (mixture of isomers) [NOV, (2R, 4R)4-methyl-1-[N^2-((RS)-3-methyl-1,2,3,4-tetrahydro-8-quinolinesulfonyl)-L-arginyl]-2-piperidinecarboxylic acid monohydrate]	1	1	2	1	0	3	0	–	–	–	–	–	–	–	–	–	–
CC1=NN(c2ccccc2)C(=O)C1 [Edaravone, 3-methyl-1-phenyl-2-pyrazolin-5-one]	–	–	–	–	–	–	–	0	11.55 ± 2.31	0	2	3	0	3	0	0	–
O=C([O-])/C=C/c1ccc(Cn2ccnc2)cc1.[Na+] [OZA]	5	2	1	1	0	0	0	–	–	–	–	–	–	–	–	–	–
t-PA: tissue plasminogen activator, thrombolytic agent; GRTPA (Mitsubishi Pharma Corporation) can be used	–	–	–	–	–	–	–	–	17.70 ± 2.85	–	–	–	–	–	–	–	prolonged the bleeding time significantly
